In US6642222B2, “Pyrano, piperidino, and thiopyrano compounds and methods of use” (Abbott Laboratories, priority 1998, dated 2003):
Structures can show the parent of a compound that is named as a salt.

Columns and labels:
[1] = system: Guinea-Pig Bladder (GPB) Cells; assay: Membrane Hyperpolarization (MHP) assay, DiBAC(4)3 / FLIPR; details: for Maximal Response (% P1075): maximal steady-state hyperpolarization, normalized to 10 μM P1075 (100%); for EC50: membrane hyperpolarization, GPB cells; for Emax: read-out: Maximal Response (% P1075), maximal steady-state hyperpolarization, normalized to 10 μM P1075 (100%)
Landrace Pig Bladder = assay: Functional potassium channel opening activity in isolated bladder strips (field-stimulated twitch); details: for Index: ED50 for P1075 divided by ED50 for the test agonist, averaged over tissues; for Emax / EC50: Sus scrofa; for Emax / Efficacy (% P1075): maximal efficacy relative to P1075, field stimulated bladder strips; for pD2 / EC50: negative logarithm of ED50; for EC50: read-out: pD2 (converted)
Method: Compounds were evaluated for functional potassium channel opening activity using tissue strips obtained from Landrace pig bladders. Landrace pig bladders were obtained from female Landrace pigs of 9-30 kg. Landrace pigs were euthanized with an intraperitoneal injection of pentobarbital solution, Somlethal®, J. A. Webster Inc. Sterling Mass. The entire bladder was removed and immediately placed into Krebs Ringer bicarbonate solution (composition, mM: NaCl, 120; […] Dextrose, 4.7; […] Propranolol (0.004 mM) was included in all of the assays to block β-adrenoceptors. The trigonal and dome portions were […], Strips 3-5 […] (mm) wide and 20 mm long were prepared from the remaining tissue cut in a circular fashion. The mucosal layer was removed. One end was fixed to a stationary glass rod and the other to a Grass FT03 transducer at a basal preload of 1.0 g. Two parallel platinum electrodes were included in the stationary glass trod to provide field stimulation of 0.05 Hz, 0.5 milli-seconds at 20 volts. […] Tissues were allowed to equilibrate for at least 60 minutes and primed with 80 mM KCl. A control concentration response curve (cumulative) was generated for each tissue using the potassium channel opener […] as the control agonist. […] After a 60 minute rinsing period, a concentration response curve (cumulative) was generated for the test agonist in the same fashion as that used for the control agonist […]. The maximal efficacy of each compounds (expressed as % relative to […]) is reported. The amount of agent necessary to cause 50% of the agent's maximal response (ED50) was calculated using “ALLFIT” (DeLean et al., Am. J. […] Agonist potencies were also expressed as an index relative to […]. The index was calculated by dividing the ED50 for […] by the ED50 for the test agonist in a given tissue. Each tissue was used for only one test agonist, and the indices obtained from each tissue were averaged to provide an average index of potency.

Compound | EC50 [1] | EC50 ([1]; Cavia porcellus) | Maximal Response (% P1075) [1] | Emax ([1]; Cavia porcellus) | also measured
Cl.O=C1CCCC2=C1C(c1ccc(F)c(Br)c1)C1=C(CNCC1=O)N2 (single isomer, unassigned; (-)) [Example 7, (−)-5-(3-bromo-4-fluorophenyl)-2,3,5,8,9,10-hexahydrobenzo[b][1,7]naphthyridine-4,6(1H, 7H)-dione Hydrochloride] |  |  |  |  | Maximal Response (% P1075) ([1]; Hydrochloride): 75 % P1075; EC50 ([1]; Hydrochloride): 570 nM; Index (Landrace Pig Bladder; Hydrochloride): 0.040; Emax (Landrace Pig Bladder): 97%; pD2 (Landrace Pig Bladder; Hydrochloride): 5.4
Cc1ccc([C@H]2C3=C(COCC3=O)NC3=C2C(=O)OC3)cc1Br (single isomer, unassigned) [Example 81] |  |  |  |  | Index (Landrace Pig Bladder): 0.23; Emax (Landrace Pig Bladder): 93%; EC50 (Landrace Pig Bladder): 398 nM
Cc1ccc(C2C3=C(COCC3=O)NC3=C2C(=O)OC3)cc1I (single isomer, unassigned) [Example 82, 9-(3-iodo-4-methylphenyl)-5,9-dihydro-3H-furo [3,4-b]pyrano[4,3-e]pyridine-1,8(4H,7H)-dione] |  |  |  |  | Index (Landrace Pig Bladder): 1.4; Emax (Landrace Pig Bladder): 98%; EC50 (Landrace Pig Bladder): 31.6 nM
N#Cc1cccc(C2C3=C(COCC3=O)NC3=C2S(=O)(=O)CC3)c1 (stereo not drawn) [Example 14, 9-(3-cyanophenyl)-2,3,5,9-tetrahydro-4H-pyrano[3,4-b]thieno[2,3-e]pyridin-8(7H)-one 1,1-dioxide] | 400 nM |  | 99 % P1075 |  | 
O=C1COCC2=C1C(c1csc([N+](=O)[O-])c1)C1=C(CCNC1=O)N2 (stereo not drawn) [Example 49, 10-(5-nitro-3-thienyl)-3,4,6,10-tetrahydro-2H-pyrano [3,4-b][1,6]naphthyridine-1,9(5H,8H)-dione] |  | 2300 nM |  | 85% | 
CCC(C)(C)N=C(NC#N)Nc1cccnc1 [Example P1075, reference compound] |  |  |  |  | stimulated twitch (Landrace Pig Bladder; control agonist, 10^−9 to 10^−5 M, dose dependent): completely eliminated the stimulated twitch
O=C1COCC2=C1C(c1ccc(Cl)c([N+](=O)[O-])c1)C1=C(CCS1(=O)=O)N2 (stereo not drawn) [Example 17, 9-(4-chloro-3-nitrophenyl)-2,3,5,9-tetrahydro-4H-pyrano[3,4-b]thieno[2,3-e]pyridin-8(7H)-one 1,1-dioxide] | 4.2 nM |  |  | 93% | 
O=C1CNCC2=C1C(c1ccc(F)c(Br)c1)C1=C(CNCC1=O)N2 [Example 4, 5-(3-bromo-4-fluorophenyl)-2,3,5,8,9,10-hexahydropyrido [3,4-b][1,7]naphthyridine-4,6(1H,7H)-dione Dihydrochloride] |  |  |  | 21% | 
O=C1COCC2=C1C(c1ccc(F)c(Cl)c1)C1=C(CCNC1=O)N2 (stereo not drawn) [Example 44, 10-(3-chloro-4-fluorophenyl)-3,4,6,10-tetrahydro-2H-pyrano [3,4-b][1,6]naphthyridine-1,9(5H,8H)-dione] |  |  |  | 96% | 
O=C1CCC2=C1C(c1ccc(F)c(Br)c1)C1=C(CSCC1=O)N2 (stereo not drawn) [Example 51, 5-(3-bromo-4-fluorophenol)-5,7,8,9-tetrahydrocyclopenta [b]thiopyrano[4,3-e]pyridine-4,6(1H,3H)-dione] | 120 nM |  | 88 % P1075 |  | 
O=C1COCC2=C1C(c1ccc(Cl)c(C(F)(F)F)c1)C1=C(COCC1=O)N2 [Example 56, 5-[4-chloro-3-(trifluoromethyl)phenyl]-5,10-dihydro-1H, 3H-dipyrano[3,4-b:4,3-e]pyridine-4,6(7H,9H)-dione] | 15 nM |  | 96 % P1075 |  | 
N#Cc1cccc(C2C3=C(COCC3=O)NC3=C2S(=O)(=O)CC3)c1 (single isomer, unassigned; (-)) [Example 16, (−) 9-(3-cyanophenyl)-2,3,5,9-tetrahydro-4H-pyrano [3,4-b]thieno[2,3-e]pyridin-8(7H)-one 1,1-dioxide] | 8800 nM |  | 57 % P1075 |  | 
O=C1COCC2=C1C(c1ccc(C(F)(F)F)c(I)c1)C1=C(COCC1=O)N2 [Example 62, 5-[3-iodo-4-(trifluoromethyl)phenyl]-5,10-dihydro-1H,3H-dipyrano[3,4-b:4,3-e]pyridine-4,6(7H,9H)-dione] | 58 nM |  | 77 % P1075 |  | 
O=C1COCC2=C1C(c1ccc(Br)c(Cl)c1)C1=C(COCC1=O)N2 [Example 60, 5-(4-bromo-3-chlorophenyl)-5,10-dihydro-1H,3H-dipyrano[3,4-b:4,3-e]pyridine-4,6(7H,9H)-dione] | 23 nM |  | 88 % P1075 |  | 
O=C1COCC2=C1C(c1ccc(Cl)c(Br)c1)C1=C(COCC1=O)N2 [Example 61, 5-(3-bromo-4-chlorophenyl)-5,10-dihydro-1H,3H-dipyrano[3,4-b:4,3-e]pyridine-4,6(7H,9H)-dione] | 6.3 nM |  | 97 % P1075 |  | 

More lines, main results first:

EC50 [1] | EC50 ([1]; Cavia porcellus) | Compound | Maximal Response (% P1075) [1] | Emax ([1]; Cavia porcellus) | also measured
25 nM |  | O=C1COCC2=C1C(c1ccc([N+](=O)[O-])s1)C1=C(COCC1=O)N2 [Example 35, 5-(5-nitro-2-thienyl)-5,10-dihydro-1H,3H-dipyrano[3,4-b:4,3-e]pyridine-4,6(7H,9H)-dione] | 98 % P1075 |  | Index (Landrace Pig Bladder): 1.8; Efficacy (% P1075) (Landrace Pig Bladder): 100 % P1075; pD2 (Landrace Pig Bladder): 7.4
 | 46 nM | O=C1COCC2=C1C(c1ccc(F)c(Br)c1)C1=C(CSCC1=O)N2 (stereo not drawn) [Example 22, 5-(3-bromo-4-fluorophenyl)-5,10-dihydro-1H,3H-pyrano[3,4-b]thiopyrano[4,3-e]pyridine-4,6(7H,9H)-dione] |  | 85% | Index (Landrace Pig Bladder): 0.027; Emax (Landrace Pig Bladder): 100%; EC50 (Landrace Pig Bladder): 2510 nM
15 nM |  | O=C1COCC2=C1C(c1ccc(F)c(C(F)(F)F)c1)C1=C(COCC1=O)N2 [Example 32, 5-[4-fluoro-3-(trifluoromethyl)phenyl]-5,10-dihydro-1H, 3H-dipyrano[3,4-b:4,3-e]pyridine-4,6(7H,9H)-dione] | 102 % P1075 |  | Index (Landrace Pig Bladder): 0.41; Efficacy (% P1075) (Landrace Pig Bladder): 100 % P1075; pD2 (Landrace Pig Bladder): 6.3
 | 84 nM | O=C1COCC2=C1C(c1ccc(Br)c(Br)c1)C1=C(CCNC1=O)N2 (stereo not drawn) [Example 48, 10-(3,4-dibromophenyl)-3,4,6,10-tetrahydro-2H-pyrano[3,4-b][1,6]naphthyridine-1,9(5H,8H)-dione] |  | 91% | 
 | 40 nM | O=C1CCC2=C1C(c1ccc(F)c(Br)c1)C1=C(COCC1=O)N2 (stereo not drawn) [Example 23, 5-(3-bromo-4-fluorophenyl)-5,7,8,9-tetrahydrocyclopenta [b]pyrano[4,3-e]pyridine-4,6(1H,3H)-dione] |  | 82% | 
 | 13 nM | CN1CC2=C(C1=O)C(c1ccc(F)c(Br)c1)C1=C(COCC1=O)N2 (stereo not drawn) [Example 26, 9-(3-bromo-4-fluorophenyl)-2-methyl-2,3,5,9-tetrahydropyrano[3,4-b]pyrrolo[3,4-e]pyridine-1,8(4H,7H)-dione] |  | 90% | 
 | 340 nM | O=C1COCC2=C1C(c1ccc(Cl)c(C(F)(F)F)c1)C1=C(CCNC1=O)N2 (stereo not drawn) [Example 46, 10-[4-chloro-3-(trifluoromethyl)phenyl]-3,4,6,10-tetrahydro-2H-pyrano[3,4-b][1,6]naphthyridine-1,9(5H,8H)-dione] |  | 83% | 
 | 200 nM | O=C1COCC2=C1C(c1ccc(Cl)c(Cl)c1)C1=C(CCNC1=O)N2 (stereo not drawn) [Example 45, 10-(3,4-dichlorophenyl)-3,4,6,10-tetrahydro-2H-pyrano [3,4-b][1,6]naphthyridine-1,9(5H,8H)-dione] |  | 85% | 
 | 9.8 nM | O=C1COCC2=C1C(c1ccc(F)c(Br)c1)C1=C(COC1=O)N2 (stereo not drawn) [Example 25, 9-(3-bromo-4-fluorophenyl)-5,9-dihydro-3H-furo [3,4-b]pyrano[4,3-e]pyridine-1,8(4H,7H)-dione] |  | 106% | 
66 nM |  | O=C1COCC2=C1C(c1ccc(F)c(Br)c1)C1=C(CCCS1(=O)=O)N2 (stereo not drawn) [Example 21, 10-(3-bromo-4-fluorophenyl)-3,4,6,10-tetrahadro-2H,5H-pyrano[3,4-b]thioyrano[2,3-e]pyridin-9(8H)-one 1,1-dioxide] | 79 % P1075 |  | 
 | 490 nM | O=C1COCC2=C1C(c1ccc(Cl)c([N+](=O)[O-])c1)C1=C(CCNC1=O)N2 (stereo not drawn) [Example 47, 10-(4-chloro-3-nitrophenyl)-3,4,6,10-tetrahydro-2H-pyrano[3,4-b][1,6]naphthyridine-1,9(5H,8H)-dione] |  | 91% | 
